Test results from patent publication US20110300532A1, “CONTROL OF THE TOXICITY OF GOLD NANOPARTICLES” (priority 2009, published 2011).
Several values for one entry are separate records, joined by “and”; a condition that tells them apart may be missing. Equal entries are not always repeated. Entries after “also recorded” stand apart in the source; their conditions may differ. Where two headings read alike, the source gives them in different places. Where a SMILES comes first, the peptide text is derived from it. The star is where a group is joined. Cbz = O=C(OCc1ccccc1)*; CH2F = FC*

What was measured:
[1] = tested on: HeLa cells; test: Flow cytometric determination of oxidative stress (CM-H2DCFDA); type: cell-based, human
Method: Applicant also studied the oxidative stress and mitochondrial damage induced by Au1.4MS nanoparticles. […] Applicant used 0.3% H2O2 as a positive control.
Flow cytometric determination of oxidative stress. HeLa cells were plated in 6-well plates at initial densities of 40,000 in 2 mL grown for 72 hours. Fresh medium containing nanoparticles (100 μM Au1.4MS, 1000 μM Au1.1GSH and Au15MS) was added to the cells and incubated for 0, 6, 12, 18, 24, 48 hours. All cell-material combinations were set up in triplicates. After the AuNP incubation, cells were trypsinized and rinsed with PBS. After rinsing cells were suspended in a buffer containing 5-(and-6)-chloromethyl-2′7′-dichlorodihydrofluorescein diacetate acetyl ester (CM-H2DCFDA) (Molecuar Probes/Invitrogen). Cells were incubated for 30 minutes at 37° C. as described by the manufacturer. Shortly, 50 μg CM-H2DCFDA powder was dissolved in 100 μL ethanol as stock solution and was kept in −20° C. For cell assays the stock solution was freshly diluted in PBS to a final working concentration of 2.5 μM. Cells incubated with 0.3% H2O2 for 30 minutes served as positive control. 20,000 cells were analysed using FACSCalibur or FACSCanto flow cytometers and CELL-Quest software (Becton-Dickinson).

[2] = tested on: caspase 3/7; test: Fluorogenic caspase activity determination (Apo-ONE caspase-3/7 assay); type: cell-based, human
Method: To confirm that the cells underwent necrosis instead of apoptosis applicant measured the caspase 3/7 activity (FIG. 4) using the fluorogenic substrate rhodamine 110 bis-(N-CBZ-L-aspartyl-L-glutamyl-L-valyl-aspartic acid amide), Z-DEVD-R110. Caspase 3/7 enzymes cleave carboxy-terminal to the aspartate in the DEVD peptide thus converting the substrate into fluorescent rhodamine. […] Thereafter caspase 3/7 activity declined until the end of the experiment at 48 hours.
Fluorogenic caspase activity determination. […] Cells were rinsed and 30 μL of medium containing 50 μM Au1.4MS was added. Untreated cells served as negative control and cells treated with 0.2 μM staurosporine served as a positive control. Apoptosis was measured using the fluorogenic caspase substrate, Apo-ONE® homogeneous caspase-3/7 assay (Promega) as described by the manufacturer. Briefly, Apo-ONE® stock solution (100fold working concentration) was […] in Apo-One® buffer and 30 μL of this was added to each well and incubated at 23° C. for 3 hours. 50 μL of the clear supernatant was transferred to a black microtiter plate and measured using a Fluorostar plate fluorometer (BMG Labtech, Offenburg, Germany) at excitation wavelength 485 nm and emission wavelength 520 nm.

[3] = tested on: HeLa cells; test: Cell cycle and DNA content measurement using flow cytometry (propidium iodide); type: cell-based, human
Method: The protein p53 controls both the G2/M and the G1 cell cycle checkpoints and mediates reversible growth arrest in apoptotic fibroblasts (cf. M. Agarwal, A. Agarwal, W. Taylor, G. Stark, Proc Natl Acad Sci USA 1995, 92, 8493). To gain insight into the cell cycle progression in the context of Au1.4MS cytotoxicity, applicant measured the cellular DNA content and mitotic index of HeLa cells. […] Cells staining intermediary reside in S phase. When the HeLa cells were treated with staurosporine (curve 2) to trigger apoptosis the relative proportion of cells in G2 phase increased to 50% indicating a G2/M block of the cells. Together with the sub G1 peak and the low fluorescent peak indicating DNA fragments this pattern was typical of apoptosis. […] This is further corroborated by the fact that caspase activation, which is likewise a late event in apoptosis, but not in necrosis, was low in Au1.4MS treated cells and furthermore, that caspase inhibition by Z-VADfmk enhanced cell viability in staurosporine treated (apoptotic) cells, but not in Au1.4MS treated (secondary necrotic) cells (FIG. 4, 5).
Cell cycle and DNA content measurement using flow cytometry. HeLa cells were plated in 6-well plates and incubated for 72 hours before adding nanoparticles. […] 20,000 cells were analysed using FACSCalibur or FACSCanto flow cytometers and CELL-Quest software (Becton-Dickinson).

[4] = tested on: HeLa cells; test: Inhibition of apoptosis by caspase inhibitor Z-VAD-fmk (cell survival); type: cell-based, human
Method: Apoptosis is predominantly caspase-mediated and can be blocked by Z-VAD-fmk whereas necrosis cannot.
Inhibition of apoptosis. HeLa cells were plated in 96-well microtiter plates at initial densities of 2,000 in 100 μL and were incubated for 72 hours before adding reagents. Cells were left untreated or were pre-treated with the caspase inhibitor Z-VAD-fmk for 3 hours (BACHEM N1510). A stock solution of 100 mM Z-VAD-fmk in DMSO was prepared and kept at −20° C. Working solution was freshly prepared by diluting the stock solution in fresh cell culture medium.

[5] = tested on: HeLa cells; conditions: for cell survival: cells pretreated with antioxidant 3 hours, washed, post-treated with 100 μM Au1.4MS 48 hours
Method: A) untreated cells. B) cells treated with Au1.4MS for 48 hours. C) cells pretreated with antioxidant/reducing agent for 3 hours, washed and post-treated with Au1.4MS for 48 hours. D) Au1.4MS pre-treated with antioxidant/reducing agent for 3 hours, mixture added to cells for 48 hours. E) cells pre-treated with antioxidant/reducing agent for 3 hours, then added Au1.4MS and incubated for 48 hours. F) Antioxidant/reducing agent mixed with Au1.4MS and mixture immediately added to cells and incubated for 48 hours. G) cells incubated with antioxidant/reducing agent for 48 hours.
HeLa cells were plated in 96-well microtiter plates at initial densities of 2,000 in 100 μL and were incubated for 72 hours before adding reagents. Fresh medium containing nanoparticles and/or antioxidants (reducing agents) was added to each well and cells were incubated for another 48 hours. […] Antioxidants/Reducing agents were freshly prepared by dissolving the powders in H2O to 200 mM and further diluted in fresh cell culture medium to working concentration.

OO [H2O2] was tested. Which “oxidative stress (intracellular ROS, CM-H2DCFDA fluorescence)” value ([1]; 0.3% for 30 minutes, positive control) did it give?
Its value is “strong oxidative stress; also recorded: strong ROS generation”.

With CN[C@@H]1C[C@H]2O[C@@](C)([C@@H]1OC)n1c3ccccc3c3c4c(c5c6ccccc6n2c5c31)C(=O)NC4 [staurosporine] as the molecule, how does the “incubation time of peak caspase 3/7 activity” value ([2]; 0.2 μM staurosporine or 50 μM Au1.4MS) read?
Its value is 12 h.

And the “Caspase 3/7 activity increase” value ([2]; 0.2 μM staurosporine, HeLa)?
Its value is 6.5 fold.

What about the “intracellular caspase 3/7 activity increase over background” value ([2]; 0.2 μM staurosporine, within 6 hours) of the same molecule?
Its value is 6 fold.

What about the “DNA content / cell cycle pattern” value ([3]; propidium iodide flow cytometry, 100 μM Au1.4MS) of the same molecule?
The value was “hypodiploid peak in DNA content typical of G2/M arrest and apoptosis”.

What about the “relative proportion of cells in G2 phase” value ([3]; staurosporine treated HeLa cells) of the same molecule?
The value was 50%.

And the cell survival ([4]; staurosporine alone, 48 hours)?
The cell survival was 47%.

Which “inhibition of the cytotoxicity of 100 μM Au1.4MS” value (“inhibition” below) [5] does the source give for N[C@@H](CCC(=O)N[C@@H](CS)C(=O)NCC(=O)O)C(=O)O [GSH, glutathione] here?
The value was “partially inhibit”.

And the cell survival ([5]; NAC 3 mM, others 1 mM)?
Its cell survival is 15%.

For COC(=O)C[C@H](NC(=O)[C@H](C)NC(=O)[C@@H](NC(=O)OCc1ccccc1)C(C)C)C(=O)CF [Z-VAD-fmk] (Cbz-Val-Ala-Asp(OMe)-CH2F), which “survival of staurosporin-treated HeLa cells after adding Z-VAD-fmk” value ([4]; 32 μM Z-VAD-fmk, 48 hours) is on record?
Its value is 84% and 83%.

What about the “survival of staurosporin-treated HeLa cells after adding Z-VAD-fmk” value ([4]; 500 μM Z-VAD-fmk, 48 hours) of the same molecule?
The value was 90%.

And the “effect of Z-VAD-fmk on survival of Au1.4MS treated cells” value ([4]; HeLa cells)?
Its value is “did not increase the survival; also recorded: did not increase cell survival”.

O=S(=O)([O-])c1cccc(P(c2ccccc2)c2ccccc2)c1.[Na+] [TPPMS, triphenylphosphine monosulfonate] was tested. Which “increase in intracellular fluorescence (ROS)” value ([1]; ligand alone, not shown) did it give?
Its value is “did not cause an increase in intracellular fluorescence”.

What about the “inhibition” value ([5]; HeLa, 48 hours, NAC 3 mM, others 1 mM) of the same molecule?
Its value is “partially inhibit”.

And the cell survival ([5]; NAC 3 mM, others 1 mM)?
The cell survival was 11%.

O=C1O[C@H]([C@@H](O)CO)C(O)=C1O [ascorbic acid] was tested. Which cell survival ([5]; NAC 3 mM, others 1 mM) did it give?
Its cell survival is 6%.

CC(=O)N[C@@H](CS)C(=O)O [NAC, N-acetylcysteine] was tested. Which “inhibition” value [5] did it give?
Its value is “partially inhibit”.

What about the cell survival ([5]; NAC 3 mM, others 1 mM) of the same molecule?
The cell survival was 7%.
